In brackets after ≈: the same amount, converted by molar mass. Values belong to the molecule of their own block, whether it stands above or below them.
How the values were obtained:
Experiment in all cases: ≥ marks a high value that may be exact or a test limit, other limits are often not marked, values filed in µg/mL are converted to µM
[1] = system: Klebsiella aerogenes
[2] = system: Escherichia coli
[3] = system: Staphylococcus aureus
[4] = system: Pseudomonas aeruginosa ATCC 27853
[5] = system: Escherichia coli ML-35p
[6] = system: Enterobacter cloacae
[7] = system: Escherichia coli ATCC 25922
[8] = system: Staphylococcus aureus ATCC 25923
[9] = system: Pseudomonas aeruginosa
[10] = system: Pseudomonas aeruginosa PAO1
[11] = system: Escherichia coli CPCC 100521
[12] = system: Candida albicans CPCC 400416
[13] = system: Staphylococcus aureus CPCC 100520
[14] = system: Staphylococcus aureus CCARM 3089
[15] = system: Acinetobacter baumannii CCARM 12036
[16] = system: Staphylococcus aureus KCTC 1621
[17] = system: Pseudomonas aeruginosa CCARM 2002
[18] = system: Salmonella typhimurium CCARM 8007
[19] = system: Staphylococcus aureus CCARM 3108
[20] = system: Staphylococcus epidermidis KCTC 1917
[21] = system: Salmonella typhimurium CCARM 8003
[22] = system: Salmonella typhimurium KCTC 1926
[23] = system: Escherichia coli KCTC 1682
[24] = system: Escherichia coli CCARM 1229
[25] = system: Acinetobacter baumannii CCARM 12035
[26] = system: Bacillus subtilis KCTC 3028
[27] = system: Staphylococcus aureus CCARM 3126
[28] = system: Pseudomonas aeruginosa CCARM 2095
[29] = system: Acinetobacter baumannii KCTC 2508
[30] = system: Pseudomonas aeruginosa KCTC 1637
[31] = system: Escherichia coli CCARM 1238
[32] = system: Staphylococcus aureus NCTC 8530
[33] = system: Staphylococcus aureus ATCC 33592
[34] = system: Vibrio harveyi CGMCC 1.1593
[35] = system: Micrococcus luteus CGMCC 1.0634
[36] = system: Shigella flexneri CGMCC 1.1868
[37] = system: Bacillus subtilis CGMCC 1.108
[38] = system: Edwardsiella tarda
[39] = system: Staphylococcus epidermidis CGMCC 1.2429
[40] = system: Vibrio parahaemolyticus CGMCC 1.1615
[41] = system: Candida albicans CGMCC 2.2411
[42] = system: Staphylococcus aureus CGMCC 1.363
[43] = system: Aeromonas sobria
[44] = system: Pseudomonas fluorescens CGMCC 1.0032
[45] = system: Vibrio alginolyticus CGMCC 1.1833
[46] = system: Vibrio fluvialis CGMCC 1.1609
[47] = system: Escherichia coli MC1061
[48] = system: Corynebacterium glutamicum CGMCC 1.1886
[49] = system: Aeromonas hydrophila CGMCC 1.0927
[50] = system: Micrococcus luteus CGMCC 1.634

Structure (SMILES): CC[C@H](C)[C@H](NC(=O)[C@@H](NC(=O)[C@H](CCCN=C(N)N)NC(=O)[C@@H]1CCCN1C(=O)[C@H](CCCCN)NC(=O)[C@H](CCCCN)NC(=O)[C@H](Cc1ccccc1)NC(=O)[C@H](Cc1ccccc1)NC(=O)[C@H](CCCCN)NC(=O)[C@H](CCCCN)NC(=O)[C@H](C)N)C(C)C)C(=O)NCC(=O)N[C@H](C(=O)N[C@@H](CO)C(=O)N[C@H](C(=O)N1CCC[C@H]1C(=O)N[C@@H](Cc1ccccc1)C(=O)O)[C@@H](C)CC)C(C)C [AKKFFKKPRVIGVSIPF]
- MIC [1]: 13.8 µM (≈ 27 µg/mL)
- MIC [2]: 2.04 µM (≈ 4 µg/mL)
- MIC [3]: 5.1 µM (≈ 10 µg/mL)
- MIC [4]: 3.57 µM (≈ 7 µg/mL)
- MIC [5]: 2.55 µM (≈ 5 µg/mL)
- MIC [6]: 10.7 µM (≈ 21 µg/mL)
- MIC [7]: 1.53 µM (≈ 3 µg/mL)
- MIC [8]: 21.4 µM (≈ 42 µg/mL)
- MIC [9]: 6.62 µM (≈ 13 µg/mL)
- MIC [10]: 6.62 µM (≈ 13 µg/mL)

Structure (SMILES): CC[C@H](C)[C@H](NC(=O)CN)C(=O)NCC(=O)NCC(=O)N[C@@H](C)C(=O)N[C@@H](CC(C)C)C(=O)N[C@@H](CC(C)C)C(=O)N[C@@H](CO)C(=O)N[C@@H](C)C(=O)NCC(=O)N[C@@H](CCCCN)C(=O)N[C@@H](CO)C(=O)N[C@@H](C)C(=O)N[C@@H](CC(C)C)C(=O)N[C@@H](CCCCN)C(=O)NCC(=O)N[C@@H](CC(C)C)C(=O)N[C@@H](C)C(=O)N[C@@H](CCCCN)C(=O)NCC(=O)N[C@@H](CC(C)C)C(=O)N[C@@H](C)C(=O)N[C@@H](CCC(=O)O)C(=O)N[C@@H](Cc1cnc[nH]1)C(=O)N[C@@H](Cc1ccccc1)C(=O)N[C@@H](C)C(=O)N[C@@H](CC(N)=O)C(N)=O [GIGGALLSAGKSALKGLAKGLAEHFAN]
- MIC [11]: 6.3 µM (≈ 16.1 µg/mL)
- MIC [12]: 12.5 µM (≈ 31.9 µg/mL)
- MIC [13]: 6.3 µM (≈ 16.1 µg/mL)

Structure (SMILES): CC[C@H](C)[C@H](NC(=O)[C@H](CCCN=C(N)N)NC(=O)CNC(=O)[C@@H](N)C(C)C)C(=O)N[C@@H](Cc1cnc[nH]1)C(=O)N[C@@H](CCCN=C(N)N)C(=O)N[C@@H](Cc1cnc[nH]1)C(=O)N[C@@H](CC(C)C)C(=O)N[C@@H](CCCCN)C(=O)O [VGRIHRHLK]
- MIC [34]: ≥ 48 µM
- MIC [35]: ≥ 48 µM
- MIC [36]: ≥ 48 µM
- MIC [37]: ≥ 48 µM
- MIC [38]: ≥ 48 µM
- MIC [39]: ≥ 48 µM
- MIC [40]: ≥ 48 µM
- MIC [41]: ≥ 48 µM
- MIC [42]: 17 µM (≈ 18.9 µg/mL)
- MIC [43]: ≥ 48 µM
- MIC [44]: 8.49 µM (≈ 9.46 µg/mL)
- MIC [45]: ≥ 48 µM
- MIC [46]: ≥ 48 µM
- MIC [47]: ≥ 48 µM
- MIC [48]: 17 µM (≈ 18.9 µg/mL)
- MIC [49]: ≥ 48 µM
- MIC [50]: 8.49 µM (≈ 9.46 µg/mL)

Results, then the molecule that gave them:

- MIC [14]: ≥ 32 µM
- MIC [15]: 8 µM (≈ 21.9 µg/mL)
- MIC [16]: ≥ 32 µM
- MIC [17]: 16 µM (≈ 43.8 µg/mL)
- MIC [18]: 16 µM (≈ 43.8 µg/mL)
- MIC [19]: ≥ 32 µM
- MIC [20]: ≥ 64 µM
- MIC [21]: 16 µM (≈ 43.8 µg/mL)
- MIC [22]: 8 µM (≈ 21.9 µg/mL)
- MIC [23]: 4 µM (≈ 11 µg/mL)
- MIC [24]: 8 µM (≈ 21.9 µg/mL)
- MIC [25]: 16 µM (≈ 43.8 µg/mL)
- MIC [26]: ≥ 32 µM
- MIC [27]: ≥ 64 µM
- MIC [28]: 16 µM (≈ 43.8 µg/mL)
- MIC [29]: 8 µM (≈ 21.9 µg/mL)
- MIC [30]: 8 µM (≈ 21.9 µg/mL)
- MIC [31]: 8 µM (≈ 21.9 µg/mL)
Structure (SMILES): CC[C@H](C)[C@H](NC(=O)[C@H](C)NC(=O)[C@H](CCCCN)NC(=O)[C@H](Cc1cnc[nH]1)NC(=O)[C@@H](NC(=O)[C@@H]1CCCN1C(=O)[C@H](CCC(N)=O)NC(=O)[C@H](Cc1ccccc1)NC(=O)[C@@H](NC(=O)[C@H](CCCCN)NC(=O)[C@H](CCCCN)NC(=O)[C@H](CC(C)C)NC(=O)[C@H](C)NC(=O)[C@H](CC(N)=O)NC(=O)[C@H](CC(C)C)NC(=O)CN)C(C)C)[C@@H](C)CC)C(=O)N[C@@H](CCCCN)C(=O)N[C@@H](CCCCN)C(=O)N[C@H](C(=O)N[C@@H](CC(N)=O)C(=O)N[C@@H](CC(N)=O)C(=O)N[C@@H](Cc1cnc[nH]1)C(=O)N[C@H](C(=O)N[C@@H](CCC(N)=O)C(=O)O)C(C)C)[C@@H](C)CC [GLNALKKVFQPIHKAIKKINNHVQ]

- MIC [32]: 3 µM (≈ 4.54 µg/mL)
- MIC [33]: 3 µM (≈ 4.54 µg/mL)
Structure (SMILES): CC[C@H](C)[C@H](NC(=O)[C@H](CCCCN)NC(=O)[C@H](CCCN=C(N)N)NC(=O)[C@@H](N)CCCCN)C(=O)N[C@@H](Cc1ccccc1)C(=O)N[C@@H](CC(C)C)C(=O)N[C@@H](CCCN=C(N)N)C(=O)N[C@H](C(=O)N[C@@H](CCCCN)C(=O)N[C@H](C(=O)N[C@@H](CC(C)C)C(=O)N[C@H](C(=O)O)C(C)C)[C@@H](C)CC)[C@@H](C)O [KRKIFLRTKILV]

Source: DBAASP
